Where no end group is shown, it is not given here.
Columns and labels:
MRSA (ATCC BAA-1556) = experiment: Flow cytometric analysis of PI-stained cells; type: cell-based, methicillin-resistant S. aureus; details: flow cytometry; for PI fluorescence of MRSA cells at MIC: 1 h treatment, 10^7 CFU/mL
Method: The flow cytometric analysis was performed by using MRSA (ATCC BAA-1556) and E. coli (ATCC BAA-2452) cultures grown to the mid log phase in Mueller Hinton broth (HIMEDIA). Before treatment, bacterial cells were washed thrice with buffer (10 mM Tris, pH 7.4) and resuspended in the same buffer to obtain 10^7 CFU/mL bacterial suspensions. Test peptides (8a and 8b) and the standard antibiotics (daptomycin and polymyxin B) at MIC and 4 × MIC were incubated with bacterial suspension for 1 h. Following the treatment with test peptides, the cells were pelleted by centrifugation at 3000g for 15 min in a microcentrifuge. The supernatant was decanted, and the cells were washed with PBS several times and then incubated with PI ([…]) in the dark for 15 min at 37 °C. FACS analysis of the stained bacterial cells was performed using a FACscan flow cytometer (BD Accuri C6, BD Biosciences, California, USA), and data were analyzed by using Cell Quest software.

E. faecalis (ATCC 51575) = experiment: microbe, parasite or virus in culture; details: Gram-positive, vancomycin-resistant; CLSI microdilution, CAMHB, 37 °C, 24 h; highest MIC of three independent experiments in triplicate
Method: (§1) Description of the characteristics and growth conditions of various bacterial strains used in the study are provided in the Supporting Information (Table S3). Antibacterial susceptibility testing was carried out using a standard microtiter dilution method recommended by the clinical and laboratory standard institute (CLSI) and measured as a minimum inhibitory concentration (MIC), the lowest peptide concentration that inhibited bacterial growth. Briefly, the overnight grown cultures in the recommended broth for each bacterial strain were diluted in cation-adjusted Mueller Hinton Broth (CAMHB) to give an inoculum of 10^6 colony-forming units (CFU)/mL. A 2-fold serially diluted test peptide solution (100 μL) was added to the microtiter plates. After adding bacterial suspension (100 μL), the plates were incubated at 37 °C for 24 h, and the MICs were determined. The same protocol was used to determine the MICs in the presence of salts and serum except using the media supplemented with various cationic salts (150 mM NaCl, 4.5 mM KCl, 6 mM NH4Cl, 1 mM MgCl2, and 2 mM CaCl2) or 25% FBS. The data was acquired from three independent assays performed in triplicate.
(§2) The bacterial strains employed in this study were obtained from the American Type Culture Collection (ATCC). Each strain was propagated as recommended by the ATCC, and each strain was stored as a frozen glycerol stock at -80°C. A bacterial colony was grown on the appropriate agar as indicated in Table S1 and was used to inoculate the appropriate broth. The culture was incubated at the appropriate conditions, as mentioned in Table S1. Following the incubation, the culture was diluted to an optical density 625 nm (OD625) of 0.1 in cation adjusted Mueller Hinton Broth (CAMHB), which is equivalent to 1 × 10^8 CFU/mL. The culture was further diluted to 1 × 10^6 CFU/mL, which was used to conduct the MIC determination assay. For the S. pneumoniae strains, CAMHB + 2.5% lysed horse blood was required for the assay. The strains with their […]
(§3) Table S3. Description of the characteristics and growth conditions of various bacterial strains

E. faecium (ATCC 700221) = experiment: microbe, parasite or virus in culture; details: Gram-positive, vancomycin-resistant; CLSI microdilution, CAMHB, 37 °C, 24 h; highest MIC of three independent experiments in triplicate
Method: as §1, §2, §3

E. faecium (ATCC 27270) = experiment: microbe, parasite or virus in culture
Method: as §1, §2, §3

[1] = test system: human lung fibroblast cells (MRC-5), human embryonic kidney cells (HEK-293), human hepatic cells (HepaRG), HeKa cells; experiment: 24 h cell viability assay (MTS); type: cell-based; details: triplicate
Method: The in vitro cytotoxicity of 8a and 8b was evaluated using human lung fibroblast cells (MRC-5), human embryonic kidney cells (HEK-293), human hepatic cells (HepaRG), and human epidermal keratinocytes (HEKa). Cells were seeded at 10,000 per well in 0.1 mL of media in 96-well plates 24 h prior to the experiment. Lung and kidney cells were seeded in DMEM medium containing FBS (10%). Liver cells were seeded in William’s E medium with the GlutaMAX supplement. Epidermal keratinocytes were seeded in a Dermal Cell Basal medium supplemented with a keratinocyte growth kit. The peptides were added to each well in triplicates at a variable concentration of 10–250 μg/mL and incubated for 24h at 37 °C in a humidified atmosphere of 5% CO2. After the incubation period, the MTS solution (20 μL) was added to each well. Then, the cells were incubated for 2 h at 37 °C, and the cell viability was determined by measuring the absorbance at 490 nm using a SpectraMaxM2 microplate spectrophotometer. The percentage of cell survival was calculated as [(OD value of cells treated with the test mixture of compounds) – (OD value of culture medium)]/[(OD value of control cells) – (OD value of culture medium)] × 100%.

[2] = test system: K. pneumoniae (ATCCBAA-1705); experiment: MIC, standard microtiter dilution (CLSI); type: cell-based, Klebsiella pneumoniae; details: broth microdilution (CLSI), CAMHB, 37 °C, 24 h
How it was run: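 In this CLSI-recommended assay, peptides were serially diluted twofold and combined with bacteria at 10^6 CFU/mL in cation-adjusted Mueller Hinton Broth.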

[3] = test system: human red blood cells (hRBCs); experiment: Hemolytic assay; type: cell-based; details: for decrease in the hemolytic activity on replacing Arg with Lys: 7b vs 7a, 8b vs 8a, HC50, hRBC; for HC50 (concentration at which 50% hemolysis was observed): 2 h, 37 °C
How it was run: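 Percent hemolysis uses PBS as 0% and 1% Triton X-100 as 100% references, from supernatant absorbance at 567 nm. Red cells (4% in PBS, equal volume) exposed 2 h at 37 °C without agitation to 2-fold serially diluted peptide.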

[4] = 10^6 CFU/mL, highest MIC of three independent experiments in triplicate
[5] = hRBC suspension 4% in PBS, hemoglobin release at 567 nm, 1% Triton X-100 = 100%
[6] = value in parentheses (μM), hRBC 4% in PBS, 567 nm
[7] = all tested cells (MRC-5, HEK-293, HepaRG, HeKa), MTS

Compound	PI-stained population of MRSA cells (MRSA (ATCC BAA-1556); MIC and 4 × MIC, 1 h)	MIC, E. faecalis (ATCC 51575) (E. faecalis (ATCC 51575)) [µg/mL]	MIC, E. faecium (ATCC 700221) (E. faecium (ATCC 700221)) [µg/mL]	MIC, E. faecium (ATCC 27270) (E. faecium (ATCC 27270); Gram-positive, CLSI microdilution, CAMHB, 37 °C, 24 h, highest MIC of three independent experiments in triplicate) [µg/mL]	cytotoxicity against kidney and liver cells ([1]; HEK293 and HPRGC10 (HepaRG), up to 250 μg/mL)	MIC, K. pneumoniae (ATCCBAA-1705) [2, 4] [µg/mL]	MIC, K. pneumoniae (ATCCBAA-1705) ([2]; value in parentheses (μM)) [µM]	MIC, E. faecium (ATCC 27270) (E. faecium (ATCC 27270); ATCC 27270, 24 h) [µg/mL]	decrease in the hemolytic activity on replacing Arg with Lys [3]	HC50 (concentration at which 50% hemolysis was observed) [3, 5] [µg/mL]	HC50 (concentration at which 50% hemolysis was observed) [3, 6] [µM]	PI fluorescence of MRSA cells at MIC (MRSA (ATCC BAA-1556)) [%]	cell viability at 250 μg/mL, except for skin cells ([1]; MRC-5, HEK-293, HepaRG, MTS)	cell viability at 50 μg/mL [1, 7]	HC50 ([3]; abstract, hRBC) [µg/mL]	cell viability at 250 μg/mL [1, 7]
CCCCCCCCCC(=O)N[C@@H](Cc1c[nH]c2ccccc12)C(=O)N[C@H](CC(N)=O)C(=O)N[C@@H](CC(=O)O)C(=O)N[C@@H]1C(=O)NCC(=O)N[C@@H](CCCN)C(=O)N[C@@H](CC(=O)O)C(=O)N[C@H](C)C(=O)N[C@@H](CC(=O)O)C(=O)NCC(=O)N[C@H](CO)C(=O)N[C@@H]([C@H](C)CC(=O)O)C(=O)N[C@@H](CC(=O)c2ccccc2N)C(=O)O[C@@H]1C [daptomycin, reference compound]	did not significantly increase	12.5	6.2	1.5	negligible cytotoxicity	–	–	–	–	–	–	–	–	–	–	–
KWIKKWIKWWKK-NH2 [7b]	–	6.2	6.2	–	–	25	14.23	6.2	approximately 5 fold	460	261.77	–	–	–	–	–
KWLKKWLKWWKK-NH2 [8b]	–	6.2	3.1	–	–	6.2	3.53	3.1	approximately 5 fold	–	159.34	42.1	above 60%	above 75%	280	–
RWIRRWIRWWRR-NH2 [7a]	–	12.5	6.2	–	–	12.5	6.49	6.2	–	90	46.74	–	–	–	–	–
RWLRRWLRWWRR-NH2 [8a]	–	6.2	3.1	–	–	12.5	6.49	6.2	–	45	23.37	34.2	–	below 60%	–	below 30%
